Results published in US9855244B2, “O/W-emulsion-type topical pharmaceutical compositions containing a retinoid” (GALDERMA RESEARCH & DEVELOPMENT, priority 2012, dated 2018).

Legend:
[1] = Stability of Compound A in its principal oily solvents (determined by HPLC); assay type: physicochemical; conditions: limits 95%-105% relative to T0
Method: (§1) In order to produce an oil-in-water (O/W) emulsion according to the invention, pre-formulation studies were carried out in order to reveal the excipients enabling good solubilization and also good stability of the active agent.
Stability of Compound A in its Principal Oily Solvents (Determined by HPLC)
(§2) The limits set for good stability are 95%-105% as relative percentage with respect to T0.

[2] = Stability of Compound A in mixtures of excipients (solvent/surfactants), determined by HPLC; assay type: physicochemical; conditions: limits 95%-105% relative to T0
Source text: as §2

[3] = "Single time" cutaneous penetration study, Franz cell, 16 h; assay type: in vitro ADME; conditions: 16 h application, ex vivo human skin, FIG. 1; stratum corneum, epidermis, dermis, receiving liquid
Source text: The in vitro tests are developed on glass diffusion cells (termed “Franz cells”) or Teflon diffusion cells, in static or dynamic modes. The cells consist of two compartments, a donor compartment and a receiver compartment, separated by a membrane, the orientation of which may be vertical or horizontal.
The membranes have a surface area generally of between 1 and 4 cm^2; they can be synthetic (cellulose, polydimethylsiloxane, etc.), but animal or human skin biopsies are preferable.
Samples of receiver liquid can be taken, at regular times over the course of 24 hours, in order to enable the establishment of the kinetics of diffusion through the skin when this proves necessary. At the end of a maximum of 24 h of application, in the case of the pharmaceutical and cosmetic products, the Franz cells are dismantled, and the substance studied is quantified in the following compartments: formulation remains, stratum corneum, epidermidis, dermis, and receiver liquid. The mass balance can in this case be established, which makes it possible to quantify the “absorbed” doses (present in the receiver liquid), the doses “having penetrated” (present in the viable epidermidis and the dermis) and the “nonabsorbed” doses (present in the formulation remains and the stratum corneum).
Two types of cutaneous penetration studies on human skin ex vivo were therefore carried out. […]

[4] = Pre-formulation studies: solubility of Compound A; assay type: physicochemical; conditions: in the solvents customarily used in the fatty phases of topical emulsions
Method: as §1

Stability results ([1]; Compound A 0.005% in Miglyol 812N (Caprylic/capric triglycerides), 40° C.): Stable/Ok 6 Months | Stability results ([1]; Compound A 0.005% in Sweet almond oil, 40° C.): Stable/Ok 6 Months | Stability results ([1]; Compound A 0.05% in Arlacel 83V Pharma (Sorbitan Sesquioleate), 40° C.): Stable/Ok 6 Months | Stability results ([1]; Compound A 0.05% in Arlamol E (PPG-15 stearyl ether), 40° C.): Stable/Ok 6 Months | Stability results ([1]; Compound A 0.05% in Arlasolve DMI (Dimethyl Isosorbide)): Unstable | Stability results ([1]; Compound A 0.05% in Benzyl alcohol): Unstable | Stability results ([1]; Compound A 0.05% in Brij 30 (Laureth-4)): Unstable | Stability results ([1]; Compound A 0.05% in Capryol 90 (Propylene glycol monocaprylate), 40° C.): Stable/Ok 6 Months | Stability results ([1]; Compound A 0.05% in Dipropylene Glycol Care (Dipropylene glycol)): Unstable | Stability results ([1]; Compound A 0.05% in Eutanol G (Octyldodecanol)): Unstable | Stability results ([1]; Compound A 0.05% in Labrafil M1944CS (Apricot Kernel Oil PEG-6 Ester), 40° C.): Stable/Ok 6 Months | Stability results ([1]; Compound A 0.05% in Lauroglycol FCC (Propylene glycol laurate), 40° C.): Stable/Ok 6 Months | Stability results ([1]; Compound A 0.05% in Myritol PC (Propylene glycol dicaprylate/dicaprate)): Unstable | Stability results ([1]; Compound A 0.05% in Phenoxetol (Phenoxyethanol), 40° C.): Stable/Ok 6 Months | Stability results ([2]; Compound A 0.05% in Arlacel 165/Lauroglycol FCC): Unstable | Stability results ([2]; Compound A 0.05% in Cremophor EL/Labrafil M1944CS): Unstable | Stability results ([2]; Compound A 0.05% in Cremophor EL/Lauroglycol FCC): Unstable | Stability results ([2]; Compound A 0.05% in GlucateSS-Glucamate SSE-20/Arlamol E): Unstable | Stability results ([2]; Compound A 0.05% in Tween 80/Arlamol E): Unstable | Stability results ([2]; Compound A 0.2% in Cremophor EL/Labrafil M1944CS): Unstable | Stability results ([2]; Compound A 0.2% in Tween 80/Hexylene glycol): Unstable | Stability results ([2]; Compound A 0.2% in Tween 80/Lauroglycol FCC): Unstable | Solubility [4]: low solubility
SMILES: CC(C)(C)c1cc(-c2cc(-c3ccc(C(=O)O)cc3)ccc2OCCO)ccc1N1CCCC1 [Compound A, 3″-Tert-butyl-4′-(2-hydroxyethoxy)-4″-pyrrolidin-1-yl[1,1′;3′,1″]terphenyl-4-carboxylic acid]
Distribution profile of compound A in the various skin compartments [3]: preferential localization and an accumulation of compound A in the stratum corneum and, less preferentially, in the epidermis
